Entries after “also recorded” stand apart in the source; their conditions may differ.
Key:
[1] = test system: rat liver microsomes (RLM); assay: Michaelis-Menten kinetics of dabrafenib metabolism (hydroxy-dabrafenib formation) in RLM; format: in vitro ADME; conditions: RLM 0.5 mg/mL, dabrafenib 0.5–200 µM
Description: RLM was obtained according to established methods ([Wang et al., 2015]). Briefly, rat livers were weighed and homogenized in ice-cold phosphate buffer containing […] sucrose. The homogenate was centrifuged at 17,000 × g for 15 min at 4 °C. The supernatant was transferred to new tubes and recentrifuged at 17,000 × g for 15 min. The resulting supernatant was then ultracentrifuged at 100,000 × g for 60 min at 4 °C. The microsomal pellet was resuspended in ice-cold 0.01 mmol/L PBS (pH = 7.2–7.4). Protein concentration was determined using a Bradford assay kit (Thermo Scientific, Waltham, MA, United States).
(§1) The 200 µL incubation system contained 0.1 M Tris-HCl (pH = 7.6), 0.5 mg/mL RLM or HLM, 1 mM NADPH, and dabrafenib. […] Carbamazepine (100 ng/mL) was added as the IS. […] Hydroxy-dabrafenib concentrations were quantified via UPLC-MS/MS.
(§2) For kinetic studies, Michaelis-Menten curves were obtained using dabrafenib concentrations (0.5–200 µM) in RLM and HLM. Samples were processed as above. Curves were plotted (dabrafenib concentration vs. V) and fitted nonlinearly (Prism 9, GraphPad).
The concentrations of dabrafenib and hydroxy-dabrafenib were quantified by UPLC-MS/MS. […] Quantification transitions were m/z 520.10 → 307.20 for dabrafenib, m/z 536.20 → 323.10 for hydroxy-dabrafenib, and m/z 237.10 → 194.10 for IS.

[2] = test system: human liver microsomes (HLM); assay: Michaelis-Menten kinetics of dabrafenib metabolism (hydroxy-dabrafenib formation) in HLM; format: in vitro ADME; conditions: HLM 0.5 mg/mL, dabrafenib 0.5–200 µM
Description: as §1, §2
The concentrations of dabrafenib and hydroxy-dabrafenib were quantified by UPLC-MS/MS. Chromatographic separation was performed on a Waters Acquity UPLC BEH C18 column (2.1 mm × 50 mm, 1.7 µm particle size) maintained at 40 °C. The mobile phase consisted of 0.1% aqueous formic acid (A) and acetonitrile (B), delivered at 0.3 mL/min with the following gradient program: 90% A (0–0.15 min), linear transition to 10% A (0.15–0.8 min), 10% A (0.8–1.5 min), and return to 90% A (1.5–2 min). Total run time was 2 min. Detection employed a Waters Xevo TQS triple quadrupole mass spectrometer (Milford, MA, United States) operated in positive-ion multiple reaction monitoring mode. Quantification transitions were m/z 520.10 → 307.20 for dabrafenib, m/z 536.20 → 323.10 for hydroxy-dabrafenib, and m/z 237.10 → 194.10 for IS.

CYP3A4.1 = molecular target: T1, CYP3A4.1 (Homo sapiens, UniProt P08684); assay: In vitro enzyme kinetics assay using CYP3A4 baculosomes: CYP3A4.1; format: in vitro ADME; conditions: dabrafenib 5–250 µM
T1 construct: made in house; host or cells: insect cells (baculovirus, pFastBac-Dual)
Description: (§3) Recombinant CYP3A4 and CYPb5 proteins were prepared according to our previously established protocol ([Fang et al., 2017]). Briefly, dual expression vectors (pFastBac-Dual) were used to construct CYP3A4-CYPOR and CYPb5-CYPOR expression plasmids. Subsequently, the corresponding baculosomes were harvested by ultracentrifugation using the baculovirus-insect cell expression system, and the target proteins were confirmed. Protein expression levels for each type were qualitatively and quantitatively assessed by Western blotting and BCA assay, respectively.
(§4) The 200 µL incubation system comprised 0.1 M Tris-HCl, 5 µg CYP3A4.1 or other CYP3A4 variants, 5 µg CYPb5, 1 mM NADPH, and dabrafenib. A dabrafenib concentration of 10 µM was used to evaluate variant specific metabolic activity. Michaelis-Menten kinetics were assessed using dabrafenib concentrations of 5, 10, 20, 50, 100, and 250 µM. Subsequent processing steps followed the procedures outlined in Section 2.3.

CYP3A4.8 = molecular target: T2, CYP3A4.8 (Homo sapiens, UniProt P08684, R130Q); assay: In vitro enzyme kinetics assay using CYP3A4 baculosomes: CYP3A4.8; format: in vitro ADME
T2 construct: made in house; host or cells: insect cells (baculovirus, pFastBac-Dual)
Description: as §3, §4

CYP3A4.20 = molecular target: T3, CYP3A4.20 (Homo sapiens, UniProt P08684); assay: In vitro enzyme kinetics assay using CYP3A4 baculosomes: CYP3A4.20; format: in vitro ADME
T3 construct: made in house; host or cells: insect cells (baculovirus, pFastBac-Dual)
Description: as §3, §4

CYP3A4.28 = molecular target: T4, CYP3A4.28 (Homo sapiens, UniProt P08684, L22V); assay: In vitro enzyme kinetics assay using CYP3A4 baculosomes: CYP3A4.28; format: in vitro ADME
T4 construct: made in house; host or cells: insect cells (baculovirus, pFastBac-Dual)
Description: as §3, §4

[3] = cited from earlier work

T2 sequence (P08684 whole entry R130Q): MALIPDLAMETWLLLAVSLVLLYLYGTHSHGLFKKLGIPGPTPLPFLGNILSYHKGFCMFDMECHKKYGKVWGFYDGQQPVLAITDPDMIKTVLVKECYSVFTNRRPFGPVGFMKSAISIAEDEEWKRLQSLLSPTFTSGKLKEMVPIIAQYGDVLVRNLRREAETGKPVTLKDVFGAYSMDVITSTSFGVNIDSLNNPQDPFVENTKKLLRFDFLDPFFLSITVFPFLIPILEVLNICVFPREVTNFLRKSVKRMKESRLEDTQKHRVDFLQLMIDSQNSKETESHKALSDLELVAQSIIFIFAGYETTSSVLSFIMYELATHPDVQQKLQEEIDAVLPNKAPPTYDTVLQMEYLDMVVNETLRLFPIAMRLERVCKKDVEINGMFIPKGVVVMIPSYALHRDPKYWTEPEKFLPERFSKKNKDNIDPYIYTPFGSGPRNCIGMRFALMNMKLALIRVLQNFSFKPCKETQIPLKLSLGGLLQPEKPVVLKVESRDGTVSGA
T4 sequence (P08684 whole entry L22V): as the sequence (P08684 whole entry R130Q) above, with L22V, Q130R counted along it
T3 sequence (P08684 with tags, fused parts or gaps limits assumed): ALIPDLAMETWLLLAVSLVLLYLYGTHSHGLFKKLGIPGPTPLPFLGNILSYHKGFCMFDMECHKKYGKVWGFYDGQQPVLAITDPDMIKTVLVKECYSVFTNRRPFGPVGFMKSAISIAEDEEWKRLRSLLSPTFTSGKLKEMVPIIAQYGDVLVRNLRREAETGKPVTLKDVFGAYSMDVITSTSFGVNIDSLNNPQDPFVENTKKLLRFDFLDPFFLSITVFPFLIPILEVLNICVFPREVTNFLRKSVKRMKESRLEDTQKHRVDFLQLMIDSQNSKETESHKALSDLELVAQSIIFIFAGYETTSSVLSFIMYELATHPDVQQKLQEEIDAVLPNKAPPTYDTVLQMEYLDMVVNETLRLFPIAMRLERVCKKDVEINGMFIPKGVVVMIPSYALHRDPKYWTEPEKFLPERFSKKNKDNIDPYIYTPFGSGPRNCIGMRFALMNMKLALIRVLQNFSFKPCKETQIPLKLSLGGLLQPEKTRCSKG
T1 sequence (P08684 whole entry): as the sequence (P08684 whole entry R130Q) above, with Q130R counted along it

- Km [1]: 14.6 ± 3.08 µM
- Km [2]: 3.5 ± 0.56 µM
- Vmax (CYP3A4.1): 0.266 ± 0.007 pmoL/L/min/μg CYP3A4
- decrease of relative clearance vs CYP3A4.1 (CYP3A4.8): 66.67%
- Vmax (CYP3A4.8; dabrafenib 5–250 µM): 0.247 ± 0.030 pmoL/L/min/μg CYP3A4
- increase of relative clearance vs CYP3A4.1 (CYP3A4.28): 26.67%
- Vmax (CYP3A4.28; dabrafenib 5–250 µM): 0.362 ± 0.026 pmoL/L/min/μg CYP3A4
SMILES: CC(C)(C)c1nc(-c2cccc(NS(=O)(=O)c3c(F)cccc3F)c2F)c(-c2ccnc(N)n2)s1 [Dabrafenib]
- Vmax [1]: 0.14 ± 0.01 pmol/L/min/µg
- Vmax [2]: 0.16 ± 0.001 pmol/L/min/µg
- metabolic activity toward dabrafenib (in words) (CYP3A4.20): nearly complete loss of activity; also recorded: lack catalytic activity
- Cmax ([3]; single 150 mg oral dose, clinical, ref Puszkiel et al., 2019, Balakirouchenane et al., 2021): 2,160 ng/mL
- oral bioavailability (F) ([3]; single-dose administration, ref Denton et al., 2013): 95%
